One test deals with T1, human DP2 (Homo sapiens, UniProt Q9Y5Y4).
T1 construct: expressed in transfected cells; membranes prepared
T1 sequence (Q9Y5Y4 1-395): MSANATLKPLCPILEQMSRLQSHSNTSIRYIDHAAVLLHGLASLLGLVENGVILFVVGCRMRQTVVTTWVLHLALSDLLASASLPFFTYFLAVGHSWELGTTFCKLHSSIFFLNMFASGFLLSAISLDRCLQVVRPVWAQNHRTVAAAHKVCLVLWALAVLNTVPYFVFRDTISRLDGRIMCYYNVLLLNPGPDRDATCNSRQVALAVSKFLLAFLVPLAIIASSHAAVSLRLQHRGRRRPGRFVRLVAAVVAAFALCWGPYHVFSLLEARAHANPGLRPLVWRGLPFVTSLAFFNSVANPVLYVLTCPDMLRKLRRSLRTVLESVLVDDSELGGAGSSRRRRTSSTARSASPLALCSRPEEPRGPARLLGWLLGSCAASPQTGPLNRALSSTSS
Description: DP-2 binding inhibition assay (3H-PGD2, membranes of DP2-expressing K562 cells). The following applies: 0.1% BSA, read-out: EC50 (nM) 0.1% BSA. Here is the method:
The coding sequence of human DP2 was introduced into the human Leukemic cell line K562 by electroporation and stable clones expressing DP2 were obtained by limiting dilution followed by cell surface staining with a rat monoclonal antibody specific for human DP2. Membranes were prepared from one of these DP2 expressing clones and used to determine the ability of the compounds of the present invention to inhibit binding of prostaglandin D2 (PGD2) to its receptor DP2 in the presence of one or more of the following serum protein concentrations, 0.1% BSA, 1% HSA or 4% HSA, by the following procedure. […] After incubation for 60 minutes at room temperature, the assay was transferred to a filtration plate (#MAFB; Millipore Corporation, Bedford, Mass.), and washed three times with binding buffer. Radioactivity was measured by a scintillation counter (TopCount; PerkinElmer Life Sciences, Boston, Mass.). Nonspecific binding was determined by incubations in the presence of 1 μM unlabeled PGD2 or 5 μM of a known DP2 antagonist. IC50 values for inhibition of binding were determined for each compound tested from the inflexion point of a standard 4-parameter logistical curve fitted to the values obtained.
As for `O=C(Nc1ccc2cc(Cl)ccc2n1)c1ccc(Oc2cc3c(cc2Cl)C(C(=O)O)CCO3)cc1` (stereo not shown) [Example 30, 6-Chloro-7-(4-(6-chloroquinolin-2-ylcarbamoyl)phenoxy)chroman-4-carboxylic acid], the concentration giving a half-maximal response (EC50) was 13 nM.

On to `Cc1noc(C)c1CCNC(=O)c1ccc(Oc2cc3c(cc2C#N)C(C(=O)O)CCO3)cc1` (stereo not shown) [Example 198, 6-cyano-7-(4-(2-(3,5-dimethylisoxazol-4-yl)ethylcarbamoyl)phenoxy)chroman-4-carboxylic acid], for which the EC50 worked out at 1240 nM.

The same test, now with this note: 1% HSA, read-out: EC50 (nM) 1% HSA.
Consider `O=C(Nc1ccc2cc(Cl)ccc2n1)c1ccc(Oc2cc3c(cc2Cl)C(C(=O)O)CCO3)cc1` (stereo not shown) [Example 30, 6-Chloro-7-(4-(6-chloroquinolin-2-ylcarbamoyl)phenoxy)chroman-4-carboxylic acid], for which the EC50 came out at 120 nM.

The test is the same for the next values; noted with them: 4% HSA, read-out: EC50 (nM) 4% HSA.
As for `CCOc1cccc(NC(=O)c2ccc(Oc3cc4c(cc3Cl)C(C(=O)O)CCO4)cc2)n1` (stereo not shown) [Example 78, 6-Chloro-7-(4-(6-ethoxypyridin-2-ylcarbamoyl)phenoxy)chroman-4-carboxylic acid], the EC50 was 740 nM. As for `O=C(Nc1cc(-c2ccc(Cl)cc2)n[nH]1)c1ccc(Oc2cc3c(cc2Cl)C(C(=O)O)CCO3)cc1` (stereo not shown) [Example 180, 6-Chloro-7-(4-(3-(4-chlorophenyl)-1H-pyrazol-5-ylcarbamoyl)phenoxy)chroman-4-carboxylic acid], the 50% effective concentration (EC50) is 406 nM.

In the case of `Cc1ccc(-c2csc(NC(=O)c3ccc(Oc4cc5c(cc4C#N)C(C(=O)O)CCO5)cc3)n2)cc1` (stereo not shown) [Example 205, 6-cyano-7-(4-(4-p-tolylthiazol-2-ylcarbamoyl)phenoxy) chroman-4-carboxylic acid], the half-maximal effective concentration (EC50) turned out to be 96.2 nM. On the same count and under the same terms, the figure for `O=C(Nc1cccc(-c2cccc(Cl)c2)n1)c1ccc(Oc2cc3c(cc2Cl)C(C(=O)O)CCO3)cc1` (stereo not shown) [Example 34, 6-Chloro-7-(4-(6-(3-chlorophenyl)pyridin-2-ylcarbamoyl)phenoxy)chroman-4-carboxylic acid] is 241 nM; for `O=C(Nc1nc2cc(Cl)ccc2o1)c1ccc(Oc2cc3c(cc2Cl)C(C(=O)O)CCO3)cc1` (stereo not shown) [Example 208, 6-chloro-7-(4-(5-chlorobenzo[d]oxazol-2-ylcarbamoyl)phenoxy) chroman-4-carboxylic acid] it is 736 nM; for `COc1ccc(-c2ccc(NC(=O)c3ccc(Oc4cc5c(cc4Cl)C(C(=O)O)CCO5)cc3)nn2)c(OC)n1` (stereo not shown) [Example 69, Sodium 6-chloro-7-(4-(6-(2,6-dimethoxypyridin-3-yl)pyridazin-3-ylcarbamoyl)phenoxy)chroman-4-carboxylate] it is 1780 nM. For `O=C(Nc1nccc(-c2ccc(C(F)(F)F)cc2)n1)c1ccc(Oc2cc3c(cc2Cl)C(C(=O)O)CCO3)cc1` (stereo not shown) [Example 130, 6-Chloro-7-(4-(4-(4-(trifluoromethyl)phenyl)pyrimidin-2-ylcarbamoyl)phenoxy)chroman-4-carboxylic acid], the EC50 came to 139 nM.

In the case of `CSc1ccc(-c2cccc(NC(=O)c3ccc(Oc4cc5c(cc4Cl)C(C(=O)O)CCO5)cc3)n2)cc1` (stereo not shown) [Example 83, 6-Chloro-7-(4-(6-(4-(methylthio)phenyl)pyridin-2-ylcarbamoyl)phenoxy)chroman-4-carboxylic acid], the EC50 was found to be 71.3 nM. Turning to `O=C(Nc1ccc2cc(Cl)ccc2n1)c1ccc(Oc2cc3c(cc2Cl)C(C(=O)O)CCO3)cc1` (stereo not shown) [Example 30, 6-Chloro-7-(4-(6-chloroquinolin-2-ylcarbamoyl)phenoxy)chroman-4-carboxylic acid], the EC50 was 134 nM. Regarding `O=C(Nc1ccc(-c2ccc(C(F)(F)F)cc2)cn1)c1ccc(Oc2cc3c(cc2Cl)C(C(=O)O)CCO3)cc1` (stereo not shown) [Example 118, 6-Chloro-7-(4-(5-(4-(trifluoromethyl)phenyl)pyridin-2-ylcarbamoyl)phenoxy)chroman-4-carboxylic acid], the EC50 stood at 100 nM. For the molecule `O=C(Nc1cccc(-c2ccc(C(F)(F)F)cc2)n1)c1ccc(Oc2cc3c(cc2Cl)C(C(=O)O)CCO3)cc1` (stereo not shown) [Example 110, 6-Chloro-7-(4-(6-(4-(trifluoromethyl)phenyl)pyridin-2-ylcarbamoyl)phenoxy)chroman-4-carboxylic acid], the half-maximal effective concentration (EC50) amounted to 25.2 nM.

With `O=C(Nc1ccc2c(Cl)cccc2n1)c1ccc(Oc2cc3c(cc2Cl)C(C(=O)O)CCO3)cc1` (stereo not shown) [Example 19, 6-Chloro-7-(4-(5-chloroquinolin-2-ylcarbamoyl)phenoxy)chroman-4-carboxylic acid], the EC50 was determined as 210 nM. On the same count and under the same terms, the figure for `O=C(Nc1nc(-c2ccc(F)c(F)c2)cs1)c1ccc(Oc2cc3c(cc2Cl)C(C(=O)O)CCO3)cc1` (stereo not shown) [Example 154, 6-chloro-7-(4-(4-(3,4-difluorophenyl)thiazol-2-ylcarbamoyl)phenoxy)chroman-4-carboxylic acid] is 59 nM; for `O=C(NCCn1ccc(Cl)cc1=O)c1ccc(Oc2cc3c(cc2Cl)C(C(=O)O)CCO3)cc1` (stereo not shown) [Example 216, 6-chloro-7-(4-(2-(4-chloro-2-oxopyridin-1(2H)-yl)ethylcarbamoyl)phenoxy)chroman-4-carboxylic acid] it is 2230 nM.

Turning to `O=C(Nc1ccn(-c2ccccc2Cl)n1)c1ccc(Oc2cc3c(cc2Cl)C(C(=O)O)CCO3)cc1` (stereo not shown) [Example 174, 6-chloro-7-(4-(1-(2-chlorophenyl)-1H-pyrazol-3-ylcarbamoyl)phenoxy)chroman-4-carboxylic acid], the EC50 was 47.1 nM. Still for that read-out and setting: the figure for `O=C(Nc1cc(-c2ccccc2Cl)ccn1)c1ccc(Oc2cc3c(cc2Cl)C(C(=O)O)CCO3)cc1` (stereo not shown) [Example 122, 6-Chloro-7-(4-(4-(2-chlorophenyl)pyridin-2-ylcarbamoyl)phenoxy)chroman-4-carboxylic acid] is 2580 nM; for `O=C(Nc1ccc(-c2ccc(Cl)cc2)cn1)c1ccc(Oc2cc3c(cc2Cl)C(C(=O)O)CCO3)cc1` (stereo not shown) [Example 115, 6-Chloro-7-(4-(5-(4-chlorophenyl)pyridin-2-ylcarbamoyl)phenoxy)chroman-4-carboxylic acid] it is 342 nM. The same measure, in the same setting: the figure for `O=C(Nc1nc(-c2ccccc2)ns1)c1ccc(Oc2cc3c(cc2Cl)C(C(=O)O)CCO3)cc1` (stereo not shown) [Example 163, 6-chloro-7-(4-(3-phenyl-1,2,4-thiadiazol-5-ylcarbamoyl)phenoxy)chroman-4-carboxylic acid] is 564 nM; for `O=C(Nc1cc(-c2ccc(Cl)cc2)ccn1)c1ccc(Oc2cc3c(cc2Cl)C(C(=O)O)CCO3)cc1` (stereo not shown) [Example 120, 6-Chloro-7-(4-(4-(4-chlorophenyl)pyridin-2-ylcarbamoyl)phenoxy)chroman-4-carboxylic acid] it is 2730 nM; for `O=C(Nc1cncc(-c2ccc(C(F)(F)F)cc2)n1)c1ccc(Oc2cc3c(cc2Cl)C(C(=O)O)CCO3)cc1` (stereo not shown) [Example 93, 6-Chloro-7-(4-(6-(4-(trifluoromethyl)phenyl)pyrazin-2-ylcarbamoyl)phenoxy)chroman-4-carboxylic acid] it is 80.5 nM. Regarding `O=C(Nc1cccc(-c2cc(F)cc(F)c2)n1)c1ccc(Oc2cc3c(cc2Cl)C(C(=O)O)CCO3)cc1` (stereo not shown) [Example 89, 6-chloro-7-(4-(6-(3,5-difluorophenyl)pyridin-2-ylcarbamoyl)phenoxy)chroman-4-carboxylic acid], the EC50 came out at 251 nM. As to `O=C(Nc1cccc(-c2ccc(Cl)cc2)n1)c1ccc(Oc2cc3c(cc2Cl)C(C(=O)O)CCO3)cc1` (stereo in doubt) [Example 206, (R)-6-chloro-7-(4-(6-(4-chlorophenyl)pyridin-2-ylcarbamoyl)phenoxy) chroman-4-carboxylic acid], the EC50 is 5000 nM. Turning to `O=C(Nc1ccc(-c2ccc(C(F)(F)F)c(Cl)c2)nn1)c1ccc(Oc2cc3c(cc2Cl)C(C(=O)O)CCO3)cc1` (stereo not shown) [Example 60, Sodium 6-chloro-7-(4-(6-(3-chloro-4-(trifluoromethyl)phenyl)pyridazin-3-ylcarbamoyl)phenoxy)chroman-4-carboxylate], the EC50 was 63 nM. Turning to `N#Cc1cc2c(cc1Oc1ccc(C(=O)Nc3ncc4cc(Cl)ccc4n3)cc1)OCCC2C(=O)O` (stereo not shown) [Example 8, 7-(4-(6-Chloroquinazolin-2-ylcarbamoyl)phenoxy)-6-cyanochroman-4-carboxylic acid], the concentration for a half-maximal effect (EC50) was 695 nM.

Regarding `O=C(Nc1ccc(-c2cccc(Cl)c2)cn1)c1ccc(Oc2cc3c(cc2Cl)C(C(=O)O)CCO3)cc1` (stereo not shown) [Example 116, 6-Chloro-7-(4-(5-(3-chlorophenyl)pyridin-2-ylcarbamoyl)phenoxy)chroman-4-carboxylic acid], the 50% effective concentration (EC50) amounted to 82.8 nM. Take `Cc1cc(NC(=O)c2ccc(Oc3cc4c(cc3Cl)C(C(=O)O)CCO4)cc2)nc(-c2ccc(C(F)(F)F)cc2)n1` (stereo not shown) [Example 102, Sodium 6-chloro-7-(4-(6-methyl-2-(4-(trifluoromethyl)phenyl)pyrimidin-4-ylcarbamoyl)phenoxy)chroman-4-carboxylate]: the concentration for a half-maximal effect (EC50) was 21.2 nM. On the same count and under the same terms, to `O=C(Nc1ccc(-c2cccc(Cl)c2)nc1)c1ccc(Oc2cc3c(cc2Cl)C(C(=O)O)CCO3)cc1` (stereo not shown) [Example 124, 6-Chloro-7-(4-(6-(3-chlorophenyl)pyridin-3-ylcarbamoyl)phenoxy)chroman-4-carboxylic acid] belongs 133 nM.

Still in this test, the particulars now being: EC50 (nM) 4% HSA, 4% HSA.
Regarding `COc1ccc(CCNC(=O)c2ccc(Oc3cc4c(cc3Cl)C(C(=O)O)CCO4)cc2)c(OC)n1` (stereo not shown) [Example 140, Sodium 6-chloro-7-(4-(2-(2,6-dimethoxypyridin-3-yl)ethylcarbamoyl)phenoxy)chroman-4-carboxylate], the EC50 was 107 nM.

As a reminder, the EC50 is the concentration needed to bring the measured effect to its halfway point.

Values taken from patent US8785445B2 (Array BioPharma Inc., priority 2008, dated 2014).
